For data set [1], the system named is Hepatotoxicity.
The test system of data set [2] is Hepatotoxicity. The source holds these as a separate data set.
In data set [3] the test system is Hepatotoxicity. This is another data set of the same source.
Data set [4] concerns Hepatotoxicity. The source holds these as a separate data set.
Data set [5] relates to Hepatotoxicity. The source holds these as a separate data set.
Data set [6] has as its system Hepatotoxicity. The source holds these as a separate data set.
The subject of data set [7] is Hepatotoxicity. This is another data set of the same source.
Data set [8] deals with Hepatotoxicity. The source holds these as a separate data set.
The subject of data set [9] is Hepatotoxicity. The source holds these as a separate data set.
For data set [10], the system named is Hepatotoxicity. This is another data set of the same source.
Data set [11] concerns Hepatotoxicity. The source holds these as a separate data set.
Data set [12] deals with Hepatotoxicity. This is another data set of the same source.
The subject of data set [13] is Hepatotoxicity. The source holds these as a separate data set.
For data set [14], the system named is Hepatotoxicity. The source holds these as a separate data set.
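For HepSE Combined Scores in this document: combined hepatic side effect score as listed in the training data of the Drug Induced Liver Injury Prediction System (DILIps).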
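For HepSE bilirubinemia in this document: bilirubinemia hepatic side effect score drawn from the DILIps training data, a prediction system for drug-induced liver injury; call rule not given here.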
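For HepSE cholecystitis in this document: Cholecystitis-related hepatic side effect score drawn from the DILIps (drug-induced liver injury prediction) training data set; call rule not given here.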
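For HepSE cholelithiasis in this document: hepatic side effect score for cholelithiasis, drawn from the DILIps training data for predicting drug-induced liver injury; call rule not given here.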
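For HepSE cirrhosis in this document: cirrhosis hepatic side effect score taken from the DILIps (drug-induced liver injury prediction) training set; call rule not given here.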
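For HepSE elevated liver function tests in this document: hepatic side effect score for raised liver function tests, as recorded in the DILIps training set used for predicting drug-induced liver injury.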
For HepSE hepatic failure in this document: call rule not given here.
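For HepSE hepatic necrosis in this document: score of hepatic side effects for hepatic necrosis, drawn from the training data of DILIps, a prediction system for drug-induced liver injury; call rule not given here.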
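For HepSE hepatitis in this document: Hepatitis-related hepatic side effect score taken from the training data of DILIps, a prediction system for drug-induced liver injury; call rule not given here.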
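For HepSE hepatomegaly in this document: hepatic side effect score for hepatomegaly, taken from the training set of the DILIps drug-induced liver injury prediction system; call rule not given here.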
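For HepSE jaundice in this document: Jaundice-related hepatic side-effect score drawn from the training data of the DILIps (drug-induced liver injury prediction system); call rule not given here.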
For HepSE liver disease in this document: call rule not given here.
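For HepSE liver fatty in this document: hepatic side effect score for fatty liver, taken from the DILIps training set for predicting drug-induced liver injury; call rule not given here.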
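For HepSE liver function tests abnormal in this document: hepatic side effect score taken from the DILIps (drug-induced liver injury prediction system) training data, here covering abnormal liver function test findings.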

`Nc1nc2ccc(OC(F)(F)F)cc2s1` [RILUZOLE]: the “HepSE_liver function tests abnormal” value in data set [1] stood at 0. This compound also returned a HepSE_hepatic necrosis in data set [2] of 0. The HepSE_jaundice in data set [3] worked out at 1. The HepSE_liver fatty in data set [4] was determined as 0. The compound also displayed a HepSE_hepatomegaly in data set [5] of 0. In [6], the “HepSE_elevated liver function tests” value turned out to be 0. In data set [7], this compound came in with a HepSE_cholecystitis of 1. This compound returned a HepSE_hepatic failure in data set [8] of 0. Moreover, in [9], the HepSE_liver disease was 0. Moreover, the HepSE_hepatitis in data set [10] was found to be 1. In data set [11], the “HepSE_Combined Scores” value amounted to 3. In data set [12], this compound registered a HepSE_cirrhosis of 0. In data set [13], the HepSE_bilirubinemia amounted to 0. In data set [14], this compound had a HepSE_cholelithiasis of 0.

On to `CC(C)C(=O)OCC(=O)[C@@]12O[C@H](C3CCCCC3)O[C@@H]1C[C@H]1[C@@H]3CCC4=CC(=O)C=C[C@]4(C)[C@H]3[C@@H](O)C[C@@]12C` [CICLESONIDE], for which, in data set [1], the “HepSE_liver function tests abnormal” value is reported as 0. The HepSE_hepatic necrosis in [2] amounted to 0. This compound also had a HepSE_jaundice in data set [3] of 0. For the same compound, the HepSE_liver fatty in [4] turned out to be 0. Also, the HepSE_hepatomegaly in [5] came to 0. The “HepSE_elevated liver function tests” value in data set [6] is listed as 0. The compound further displayed a HepSE_cholecystitis in [7] of 0. In data set [8], this compound displayed a HepSE_hepatic failure of 0. In [9], this compound had a HepSE_liver disease of 0. Moreover, in data set [10], the HepSE_hepatitis is 0. Also, the “HepSE_Combined Scores” value in [11] is given as 0. This compound also displayed a HepSE_cirrhosis in [12] of 0. In data set [13], this compound yielded a HepSE_bilirubinemia of 0. In data set [14], this compound showed a HepSE_cholelithiasis of 0.

Regarding `CC(=O)CC(c1ccccc1)c1c(O)c2ccccc2oc1=O` (stereo not given) [WARFARIN], the “HepSE_liver function tests abnormal” value in [1] came out at 0. The HepSE_hepatic necrosis in data set [2] turned out to be 0. Moreover, the HepSE_jaundice in [3] amounted to 1. Further, the HepSE_liver fatty in [4] is reported as 0. The compound further had a HepSE_hepatomegaly in data set [5] of 0. In addition, the “HepSE_elevated liver function tests” value in data set [6] was 0. Moreover, in data set [7], the HepSE_cholecystitis is recorded as 0. Moreover, the HepSE_hepatic failure in data set [8] is 0. The compound also gave a HepSE_liver disease in data set [9] of 0. The HepSE_hepatitis in data set [10] worked out at 1. Besides, in [11], the “HepSE_Combined Scores” value stood at 2. In data set [12], the HepSE_cirrhosis is 0. Moreover, in data set [13], the HepSE_bilirubinemia is reported as 0. Besides, the HepSE_cholelithiasis in data set [14] worked out at 0.

As to `C=CC[C@@H]1/C=C(\C)C[C@H](C)C[C@H](OC)[C@H]2O[C@@](O)(C(=O)C(=O)N3CCCC[C@H]3C(=O)O[C@H](/C(C)=C/[C@@H]3CC[C@@H](O)[C@H](OC)C3)[C@H](C)[C@@H](O)CC1=O)[C@H](C)C[C@@H]2OC` [TACROLIMUS ANHYDROUS], in data set [1], the “HepSE_liver function tests abnormal” value is 1. In data set [2], the HepSE_hepatic necrosis was 1. This compound displayed a HepSE_jaundice in data set [3] of 1. In data set [4], this compound showed a HepSE_liver fatty of 1. For the same compound, the HepSE_hepatomegaly in data set [5] stood at 0. Further, in [6], the “HepSE_elevated liver function tests” value is reported as 0. Moreover, the HepSE_cholecystitis in [7] is listed as 0. In addition, the HepSE_hepatic failure in [8] came out at 0. Besides, in data set [9], the HepSE_liver disease stood at 1. In data set [10], this compound had a HepSE_hepatitis of 1. Besides, the “HepSE_Combined Scores” value in data set [11] turned out to be 7. In data set [12], the HepSE_cirrhosis came out at 0. In [13], this compound showed a HepSE_bilirubinemia of 1. The compound further showed a HepSE_cholelithiasis in [14] of 0.

Turning to `CN(C)CC/C=C1/c2ccccc2COc2ccc(CC(=O)O)cc21` [OLOPATADINE], the “HepSE_liver function tests abnormal” value in [1] came out at 0. Moreover, in data set [2], the HepSE_hepatic necrosis is 0. Also, the HepSE_jaundice in data set [3] stood at 0. Further, the HepSE_liver fatty in data set [4] turned out to be 0. Moreover, the HepSE_hepatomegaly in data set [5] was 0. Moreover, the “HepSE_elevated liver function tests” value in data set [6] was 0. This compound had a HepSE_cholecystitis in [7] of 0. This compound showed a HepSE_hepatic failure in [8] of 0. This compound also displayed a HepSE_liver disease in [9] of 0. Also, in data set [10], the HepSE_hepatitis is 0. Moreover, the “HepSE_Combined Scores” value in [11] amounted to 0. The compound further gave a HepSE_cirrhosis in data set [12] of 0. This compound also displayed a HepSE_bilirubinemia in [13] of 0. This compound displayed a HepSE_cholelithiasis in data set [14] of 0.

CISPLATIN: the “HepSE_liver function tests abnormal” value in data set [1] is 0. Further, the HepSE_hepatic necrosis in data set [2] amounted to 0. Also, the HepSE_jaundice in data set [3] turned out to be 0. This compound also had a HepSE_liver fatty in data set [4] of 0. The HepSE_hepatomegaly in [5] is 0. The “HepSE_elevated liver function tests” value in data set [6] is given as 0. This compound had a HepSE_cholecystitis in data set [7] of 0. Also, the HepSE_hepatic failure in data set [8] is given as 0. In data set [9], the HepSE_liver disease came to 0. Also, the HepSE_hepatitis in [10] is listed as 0. In [11], the “HepSE_Combined Scores” value was determined as 0. The HepSE_cirrhosis in data set [12] came to 0. Besides, the HepSE_bilirubinemia in [13] is 0. Also, the HepSE_cholelithiasis in [14] came to 0.

For `CC(C)OC(=O)C(C)(C)Oc1ccc(C(=O)c2ccc(Cl)cc2)cc1` [FENOFIBRATE], the “HepSE_liver function tests abnormal” value in data set [1] is 1. The compound further gave a HepSE_hepatic necrosis in data set [2] of 0. For the same compound, the HepSE_jaundice in data set [3] is listed as 1. The same compound came in with a HepSE_liver fatty in data set [4] of 1. The compound also had a HepSE_hepatomegaly in [5] of 0. Also, in [6], the “HepSE_elevated liver function tests” value was 0. In [7], this compound displayed a HepSE_cholecystitis of 1. Further, the HepSE_hepatic failure in data set [8] is recorded as 0. The HepSE_liver disease in data set [9] worked out at 0. Besides, in data set [10], the HepSE_hepatitis is given as 1. Also, the “HepSE_Combined Scores” value in [11] worked out at 7. Besides, the HepSE_cirrhosis in data set [12] is reported as 1. The HepSE_bilirubinemia in data set [13] is recorded as 0. In [14], this compound displayed a HepSE_cholelithiasis of 1.

Turning to `C=C(c1ccc(C(=O)O)cc1)c1cc2c(cc1C)C(C)(C)CCC2(C)C` [BEXAROTENE], in [1], the “HepSE_liver function tests abnormal” value was determined as 0. Further, the HepSE_hepatic necrosis in [2] stood at 0. Further, the HepSE_jaundice in data set [3] is 0. The HepSE_liver fatty in data set [4] was 0. Moreover, the HepSE_hepatomegaly in data set [5] was 0. Besides, the “HepSE_elevated liver function tests” value in [6] came out at 0. The HepSE_cholecystitis in data set [7] is 0. In data set [8], this compound yielded a HepSE_hepatic failure of 1. The compound further gave a HepSE_liver disease in data set [9] of 0. Moreover, in data set [10], the HepSE_hepatitis was 0. Besides, in data set [11], the “HepSE_Combined Scores” value turned out to be 2. Besides, in data set [12], the HepSE_cirrhosis was determined as 0. The compound also came in with a HepSE_bilirubinemia in [13] of 1. The HepSE_cholelithiasis in data set [14] is given as 0.

As for `CCCN[C@H]1CCc2nc(N)sc2C1` [PRAMIPEXOLE], in [1] (Liver), the “HepSE_liver function tests abnormal” value is 0. Also, in data set [2] (Liver), the HepSE_hepatic necrosis came to 0. The compound also yielded a HepSE_jaundice in [3] (Liver) of 0. The compound also had a HepSE_liver fatty in data set [4] (Liver) of 0. In addition, in [5] (Liver), the HepSE_hepatomegaly came to 0. Moreover, the “HepSE_elevated liver function tests” value in data set [6] (Liver) was determined as 0. The HepSE_cholecystitis in data set [7] (Liver) worked out at 1. This compound also yielded a HepSE_hepatic failure in data set [8] (Liver) of 0. The HepSE_liver disease in data set [9] (Liver) is on record as 0. The HepSE_hepatitis in data set [10] (Liver) is listed as 0. Besides, in data set [11] (Liver), the “HepSE_Combined Scores” value stood at 2. The compound further returned a HepSE_cirrhosis in [12] (Liver) of 0. This compound also had a HepSE_bilirubinemia in data set [13] (Liver) of 0. Also, the HepSE_cholelithiasis in data set [14] (Liver) is 1.

In the case of `C[N+](C)(C)CCOC(N)=O.[Cl-]` [CARBACHOL], the “HepSE_liver function tests abnormal” value in [1] is on record as 0. In [2], this compound came in with a HepSE_hepatic necrosis of 0. In data set [3], this compound showed a HepSE_jaundice of 0. The compound further registered a HepSE_liver fatty in [4] of 0. The same compound gave a HepSE_hepatomegaly in data set [5] of 0. In addition, in [6], the “HepSE_elevated liver function tests” value amounted to 0. Moreover, in data set [7], the HepSE_cholecystitis is on record as 0. In addition, the HepSE_hepatic failure in data set [8] worked out at 0. In [9], this compound had a HepSE_liver disease of 0. The same compound yielded a HepSE_hepatitis in data set [10] of 0. Besides, the “HepSE_Combined Scores” value in [11] was determined as 0. The HepSE_cirrhosis in [12] came out at 0. The HepSE_bilirubinemia in data set [13] was 0. The compound further had a HepSE_cholelithiasis in data set [14] of 0.
